Assay results from patent publication US20230027075A1, “SULFONAMIDE COMPOUNDS TARGETING CD73 AND ADENOSINE RECEPTORS” (Aurigene Discovery Technologies Limited, priority 2019, published 2023).
Counter-ions that a name gives are not always drawn.

How the values were obtained:
[1] = biological target: T1, human-CD73 (Trp27-Lys547, His-tag) (Homo sapiens, UniProt P21589); test: CD73 biochemical assay (colorimetric, Malachite Green phosphate detection); conditions: 2 nM CD73, 50 μM AMP; for inhibition at 20 µM: read-out: % inhibition at 20 μM (Percent inhibition data in CD73); for IC50: four-parameter curve fit, read-out: Potency (IC50 values) of selected compounds in CD73, group
T1 construct: human-CD73 (Trp27-Lys547, His-tag); His-tag
T1 sequence (P21589 27-547): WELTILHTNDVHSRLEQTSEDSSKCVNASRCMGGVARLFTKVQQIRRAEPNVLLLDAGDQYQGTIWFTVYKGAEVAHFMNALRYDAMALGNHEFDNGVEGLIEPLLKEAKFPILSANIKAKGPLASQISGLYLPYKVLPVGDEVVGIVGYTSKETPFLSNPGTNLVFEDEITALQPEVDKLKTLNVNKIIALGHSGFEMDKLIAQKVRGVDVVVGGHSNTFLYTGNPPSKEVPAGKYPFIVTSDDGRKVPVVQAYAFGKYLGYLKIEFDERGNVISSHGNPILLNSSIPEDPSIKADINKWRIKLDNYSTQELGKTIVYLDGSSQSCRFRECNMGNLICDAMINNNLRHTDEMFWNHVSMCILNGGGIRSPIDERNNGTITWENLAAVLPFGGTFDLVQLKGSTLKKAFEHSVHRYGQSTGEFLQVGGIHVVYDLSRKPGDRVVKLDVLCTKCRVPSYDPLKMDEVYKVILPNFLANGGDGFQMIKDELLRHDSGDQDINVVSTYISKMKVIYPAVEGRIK
Description: A colorimetric-based method was used for assaying compounds of the invention for CD73 enzyme inhibitory activity. Human CD73 catalyzes the conversion of AMP to adenosine with the release of orthophosphate. A Malachite Green Phosphate Detection kit is used to measure the formation of orthophosphate product. […] A compound of the present invention and enzyme are incubated for 30 minutes at room temperature. Next, 20 μL of AMP in assay buffer is added to the plate. The final concentration of CD73 and AMP are 2 nM and 50 μM respectively. Following 30 minutes reaction at room temperature, 20 μL of Malachite reagent is added to all the reaction wells. The formation of green complex formed between Malachite Green, molybdate and free orthophosphate is measured on a plate reader (620 nm).

A2aR = biological target: T2, A2aR (Homo sapiens, UniProt P29274); test: A2aR biochemical assay (TR-FRET binding, Tag-lite A2aR labelled cells, fluorescent antagonist); conditions: 10 nM fluorescent A2aR antagonist; for inhibition at 20 µM: read-out: % inhibition at 20 μM (Percent inhibition data in A2aR); for IC50: four-parameter curve fit, read-out: Potency (IC50 values) of selected compounds in A2aR, group
T2 construct: expressed in transfected cells
T2 sequence (P29274 whole entry): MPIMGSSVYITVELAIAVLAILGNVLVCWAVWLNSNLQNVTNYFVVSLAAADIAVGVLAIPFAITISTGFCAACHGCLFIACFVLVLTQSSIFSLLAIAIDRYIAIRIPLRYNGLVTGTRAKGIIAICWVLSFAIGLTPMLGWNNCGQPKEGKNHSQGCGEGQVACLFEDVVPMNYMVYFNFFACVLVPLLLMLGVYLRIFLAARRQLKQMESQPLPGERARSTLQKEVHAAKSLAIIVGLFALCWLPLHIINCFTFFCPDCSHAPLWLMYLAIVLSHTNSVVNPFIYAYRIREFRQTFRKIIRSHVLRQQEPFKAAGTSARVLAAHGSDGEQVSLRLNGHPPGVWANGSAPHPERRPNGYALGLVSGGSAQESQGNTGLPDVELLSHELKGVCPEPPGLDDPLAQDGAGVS
Description: The compounds of present invention were assayed for A2aR enzyme binding activity in a TR-FRET based method. Typically, 10 μL of A2aR labelled cells in assay buffer (Tag-lite, 1×) is added to a 384-well plate containing 5 μL of a compound of present invention in final 1% DMSO, serially diluted in 1:5 in a 5-6 point titration. The aforesaid compound and cells are incubated for 30 minutes at room temperature. Next, 5 μL of A2aR antagonist (fluorescent ligand) in assay buffer is added to the plate. The final concentration of A2aR antagonist is 10 nM. Following 30 minutes reaction at room temperature, the plate was read on a plate reader (Ex: 340 nm Em: 615 nm and 665 nm) to measure the binding of test compound to A2aR cells. The results are interpreted as percentage inhibition as presented in Table-2A of binding by the test compound with respect to the DMSO control.

[2] = 20 μM compound, vs DMSO control

inhibition at 20 µM ([1]; 20 μM compound)	inhibition at 20 µM (A2aR; [2])	IC50 [1]	IC50 (A2aR)	% inhibition at 20 μM (Percent inhibition data in CD73) ([1]; 20 μM compound, sodium salt)	% inhibition at 20 μM (Percent inhibition data in A2aR) (A2aR; [2])	Structure (SMILES)
99%	86%					Nc1nc(NCCCc2ccc(NS(=O)(=O)c3cc(Cl)c4oc(=O)[nH]c(=O)c4c3)cc2)nc2nc(-c3ccco3)nn12 [Example B4, N-(4-(3-((7-amino-2-(furan-2-yl)-[1,2,4]triazolo[1,5-a][1,3,5]triazin-5-yl)amino)propyl)phenyl)-8-chloro-2,4-dioxo-3,4-dihydro-2H-benzo[e][1,3]oxazine-6-sulfonamide]
35%	80%					Nc1nc(NCCc2ccc(NS(=O)(=O)c3cc(Cl)c4c(c3)CC(=O)N4)cc2)nc2nc(-c3ccco3)nn12 [Example B1, N-(4-(2-((7-amino-2-(furan-2-yl)-[1,2,4]triazolo[1,5-a][1,3,5]triazin-5-yl)amino)ethyl)phenyl)-7-chloro-2-oxoindoline-5-sulfonamide]
39%	79%					Nc1nc(NCCc2ccc(NS(=O)(=O)c3cc(Cl)c4c(c3)C(Cl)(Cl)C(=O)N4)cc2)nc2nc(-c3ccco3)nn12 [Example B2, N-(4-(2-((7-amino-2-(furan-2-yl)-[1,2,4]triazolo[1,5-a][1,3,5]triazin-5-yl)amino)ethyl)phenyl)-3,3,7-trichloro-2-oxoindoline-5-sulfonamide]
100%	81%	110 to 1000 nM	< 25 nM			NC(=O)c1cc(S(=O)(=O)Nc2ccc(NCCNc3nc(N)n4nc(-c5ccco5)nc4n3)cc2)cc(Cl)c1O [Example C1, 5-(N-(4-((2-((7-amino-2-(furan-2-yl)-[1,2,4]triazolo[1,5-a][1,3,5]triazin-5-yl)amino)ethyl)amino)phenyl)sulfamoyl)-3-chloro-2-hydroxybenzamide]
	85%					NC(=O)c1cc(S(=O)(=O)Nc2cccc(NCCNc3nc(N)n4nc(-c5ccco5)nc4n3)c2)cc(Cl)c1O [Example C2, 5-(N-(3-((2-((7-amino-2-(furan-2-yl)-[1,2,4]triazolo[1,5-a][1,3,5]triazin-5-yl)amino)ethyl)amino)phenyl)sulfamoyl)-3-chloro-2-hydroxybenzamide]

The remaining lines, values behind:

Structure (SMILES)	inhibition at 20 µM ([1]; 20 μM compound)	inhibition at 20 µM (A2aR; [2])	IC50 [1]	IC50 (A2aR)	% inhibition at 20 μM (Percent inhibition data in CD73) ([1]; 20 μM compound, sodium salt)	% inhibition at 20 μM (Percent inhibition data in A2aR) (A2aR; [2])
NC(=O)c1cc(S(=O)(=O)Nc2ccc(CCCNc3cc(N)n4nc(-c5ccco5)nc4n3)c(F)c2)cc(Cl)c1O [Example A22, 5-(N-(4-(3-((7-amino-2-(furan-2-yl)-[1,2,4]triazolo[1,5-a]pyrimidin-5-yl)amino)propyl)-3-fluorophenyl)sulfamoyl)-3-chloro-2-hydroxybenzamide]	95%	81%	< 100 nM			
NC(=O)c1cc(S(=O)(=O)Nc2cccc(CNc3nc(N)n4nc(-c5ccco5)nc4n3)c2)cc(Cl)c1O [Example A1, 5-(N-(3-(((7-amino-2-(furan-2-yl)-[1,2,4]triazolo[1,5-a][1,3,5]triazin-5-yl)amino)methyl)phenyl)sulfamoyl)-3-chloro-2-hydroxybenzamide]	91%	78%	> 1000 nM	< 25 nM		
NC(=O)c1cc(S(=O)(=O)Nc2ccc(CCCNc3nc(N)n4nc(-c5ccco5)nc4n3)cc2)cc(Cl)c1O [Example A26, 5-(N-(4-(3-((7-amino-2-(furan-2-yl)-[1,2,4]triazolo[1,5-a][1,3,5]triazin-5-yl)amino)propyl)phenyl)sulfamoyl)-3-chloro-2-hydroxybenzamide sodium salt]		80%			96%	
Nc1nc(NCCc2ccc(NS(=O)(=O)c3cc(F)c(O)c(Cl)c3)cc2)nc2nc(-c3ccco3)nn12 [Example A4, N-(4-(2-((7-amino-2-(furan-2-yl)-[1,2,4]triazolo[1,5-a][1,3,5]triazin-5-yl)amino)ethyl)phenyl)-3-chloro-5-fluoro-4-hydroxybenzenesulfonamide]	27%	81%				
CC(=O)Nc1nc(NCCc2ccc(NS(=O)(=O)c3cc(Cl)c(O)c(C(N)=O)c3)cc2)nc2nc(-c3ccco3)nn12 [Example A8, 5-(N-(4-(2-((7-acetamido-2-(furan-2-yl)-[1,2,4]triazolo[1,5-a][1,3,5]triazin-5-yl)amino)ethyl)phenyl)sulfamoyl)-3-chloro-2-hydroxybenzamide]	70%	81%				
NC(=O)c1cc(S(=O)(=O)Nc2ccc(CCCNc3cc(N)n4nc(-c5ccco5)nc4n3)cc2F)cc(Cl)c1O [Example A23, 5-(N-(4-(3-((7-amino-2-(furan-2-yl)-[1,2,4]triazolo[1,5-a]pyrimidin-5-yl)amino)propyl)-2-fluorophenyl)sulfamoyl)-3-chloro-2-hydroxybenzamide]		78%		> 50 nM		
NC(=O)c1cc(S(=O)(=O)Nc2ccc(CCCNc3nc(N)n4nc(-c5ccco5)nc4n3)c(O)c2)cc(Cl)c1O [Example A13, 5-(N-(4-(3-((7-amino-2-(furan-2-yl)-[1,2,4]triazolo[1,5-a][1,3,5]triazin-5-yl)amino)propyl)-3-hydroxyphenyl)sulfamoyl)-3-chloro-2-hydroxybenzamide]	97%	83%	< 100 nM	25.1 to 50 nM		
Nc1nc(NCCc2ccc(NS(=O)(=O)c3ccc(O)c(C(F)(F)F)c3)cc2)nc2nc(-c3ccco3)nn12 [Example A10, N-(4-(2-((7-amino-2-(furan-2-yl)-[1,2,4]triazolo[1,5-a][1,3,5]triazin-5-yl)amino)ethyl)phenyl)-4-hydroxy-3-(trifluoromethyl)benzenesulfonamide]	17%	88%				
NC(=O)c1cc(S(=O)(=O)Nc2ccc(CCCNc3nc(N)n4nc(-c5ccco5)nc4n3)cc2)cc(Cl)c1O [Example A11, 5-(N-(4-(3-((7-amino-2-(furan-2-yl)-[1,2,4]triazolo[1,5-a][1,3,5]triazin-5-yl)amino)propyl)phenyl)sulfamoyl)-3-chloro-2-hydroxybenzamide]	98%		< 100 nM	< 25 nM		88%
NC(=O)c1cc(S(=O)(=O)Nc2ccc(CCNc3nc(N)n4nc(-c5ccco5)nc4n3)c(F)c2)cc(Cl)c1O [Example A6, 5-(N-(4-(2-((7-amino-2-(furan-2-yl)-[1,2,4]triazolo[1,5-a][1,3,5]triazin-5-yl)amino)ethyl)-3-fluorophenyl)sulfamoyl)-3-chloro-2-hydroxybenzamide]	98%	79%	110 to 1000 nM			
NC(=O)c1cc(S(=O)(=O)Nc2ccc(CCCNc3cc(N)n4nc(-c5ccco5)cc4n3)cc2)cc(Cl)c1O [Example A24]	92%	79%	< 100 nM	> 50 nM		
CC(C)COC(=O)Nc1nc(NCCc2ccc(NS(=O)(=O)c3cc(Cl)c(O)c(C(N)=O)c3)cc2)nc2nc(-c3ccco3)nn12 [Example A9, Isobutyl (5-((4-((3-carbamoyl-5-chloro-4-hydroxyphenyl)sulfonamido)phenethyl)amino)-2-(furan-2-yl)-[1,2,4]triazolo[1,5-a][1,3,5]triazin-7-yl)carbamate]	39%	82%				
